In the experiment the target is b-Raf (V600E) (Homo sapiens (Human), UniProt P15056, V600E). The settings on record: read-out: b-Raf IC-50; AlphaScreen, 60 min pre-incubation, reaction 3 hours at room temperature. (In general: Bead proximity is the source of the signal in Alpha formats.)
b-Raf (V600E), sequence (P15056 whole entry V600E): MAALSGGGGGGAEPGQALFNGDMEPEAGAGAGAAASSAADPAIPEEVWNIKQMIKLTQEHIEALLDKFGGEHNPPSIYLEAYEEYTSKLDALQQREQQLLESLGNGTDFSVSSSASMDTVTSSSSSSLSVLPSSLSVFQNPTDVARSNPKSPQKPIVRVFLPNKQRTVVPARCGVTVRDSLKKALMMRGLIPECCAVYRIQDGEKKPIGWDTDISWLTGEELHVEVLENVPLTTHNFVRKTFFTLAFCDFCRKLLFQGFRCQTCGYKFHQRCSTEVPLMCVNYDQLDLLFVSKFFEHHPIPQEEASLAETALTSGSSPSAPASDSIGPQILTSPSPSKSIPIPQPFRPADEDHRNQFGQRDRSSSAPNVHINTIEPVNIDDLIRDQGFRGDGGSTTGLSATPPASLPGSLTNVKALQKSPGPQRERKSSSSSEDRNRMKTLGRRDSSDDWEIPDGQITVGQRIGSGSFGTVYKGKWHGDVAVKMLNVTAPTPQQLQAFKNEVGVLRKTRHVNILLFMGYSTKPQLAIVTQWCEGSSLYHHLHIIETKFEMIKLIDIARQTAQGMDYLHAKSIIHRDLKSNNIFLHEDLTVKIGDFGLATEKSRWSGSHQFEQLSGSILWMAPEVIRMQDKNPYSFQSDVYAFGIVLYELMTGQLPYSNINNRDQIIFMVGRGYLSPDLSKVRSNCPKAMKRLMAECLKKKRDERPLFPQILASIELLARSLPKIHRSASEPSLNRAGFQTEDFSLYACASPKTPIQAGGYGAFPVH
With `Cc1ncc(NC(=O)c2ccnc(C(F)F)c2)cc1-c1cc(NCCO)nc(N2CCOC[C@H]2C)c1` [Example 1141, (R)-2-(difluoromethyl)-N-(2′-((2-hydroxyethyl)amino)-2-methyl-6′-(3-methylmorpholino)-[3,4′-bipyridin]-5-yl)isonicotinamide], the IC50 was 15.7 nM. The figure for `CCOc1cc(-c2cc(NC(=O)c3ccnc(C(C)(C)F)c3)cnc2C)cc(N2CCOCC2)n1` [Example 1142, N-(2′-ethoxy-2-methyl-6′-morpholino-[3,4′-bipyridin]-5-yl)-2-(2-fluoropropan-2-yl)isonicotinamide] is 3.18 nM. As for `CCOc1cc(-c2cc(NC(=O)c3ccnc(C(C)(F)F)c3)cnc2C)cc(N2CCOCC2)n1` [Example 1143, 2-(1,1-difluoroethyl)-N-(2′-ethoxy-2-methyl-6′-morpholino-[3,4′-bipyridin]-5-yl)isonicotinamide], the figure is 1.81 nM. As for `Cc1ccc(NC(=O)c2ccnc(C(C)(C)F)c2)cc1-c1cc(C2COCCO2)nc(N2CCOCC2)c1` (centres unmarked) [Example 1144, N-(3-(2-(1,4-dioxan-2-yl)-6-morpholinopyridin-4-yl)-4-methylphenyl)-2-(2-fluoropropan-2-yl)isonicotinamide], the figure is 1.56 nM; as for `Cc1ccc(NC(=O)c2ccnc(C(C)(F)F)c2)cc1-c1cc(C2COCCO2)nc(N2CCOCC2)c1` (centres unmarked) [Example 1145], 1.3 nM; as for `CCOc1cc(-c2cc(NC(=O)c3ccnc(C(F)F)c3)cnc2C)cc(N2CCOCC2)n1` [Example 1146, 2-(difluoromethyl)-N-(2′-ethoxy-2-methyl-6′-morpholino-[3,4′-bipyridin]-5-yl)isonicotinamide], 1.87 nM. Consider `CCOc1cc(-c2cc(NC(=O)c3ccnc(C(C)(C)C#N)c3)cnc2C)cc(N2CCOCC2)n1` [Example 1147, 2-(2-cyanopropan-2-yl)-N-(2′-ethoxy-2-methyl-6′-morpholino-[3,4′-bipyridin]-5-yl)isonicotinamide], for which the IC50 amounted to 8.31 nM. As for `CCOc1cc(-c2cc(NC(=O)c3ccnc(C(C)(C)O)c3)cnc2C)cc(N2CCOCC2)n1` [Example 1148, N-(2′-ethoxy-2-methyl-6′-morpholino-[3,4′-bipyridin]-5-yl)-2-(2-hydroxypropan-2-yl)isonicotinamide], the figure is 11.9 nM.

With `CCOc1cc(-c2cc(NC(=O)c3ccnc(C4CC4)c3)cnc2C)cc(N2CCOCC2)n1` [Example 1149, 2-cyclopropyl-N-(2′-ethoxy-2-methyl-6′-morpholino-[3,4′-bipyridin]-5-yl)isonicotinamide], the IC50 stood at 3.13 nM. The figure for `Cc1ccc(NC(=O)c2ccnc(C(C)(C)O)c2)cc1-c1cc(OC2CCOCC2)nc(N2CCOCC2)c1` [Example 1150, 2-(2-hydroxypropan-2-yl)-N-(4-methyl-3-(2-morpholino-6-((tetrahydro-2H-pyran-4-yl)oxy)pyridin-4-yl)phenyl)isonicotinamide] is 1.6 nM; for `Cc1ccc(NC(=O)c2ccnc(C(F)F)c2)cc1-c1cc(OC2CCOCC2)nc(N2CCOCC2)c1` [Example 1151, 2-(difluoromethyl)-N-(4-methyl-3-(2-morpholino-6-((tetrahydro-2H-pyran-4-yl)oxy)pyridin-4-yl)phenyl)isonicotinamide] it is 0.6 nM; for `Cc1ccc(NC(=O)c2ccnc(C(C)(C)C#N)c2)cc1-c1cc(OC2CCOCC2)nc(N2CCOCC2)c1` [Example 1152, 2-(2-cyanopropan-2-yl)-N-(4-methyl-3-(2-morpholino-6-((tetrahydro-2H-pyran-4-yl)oxy)pyridin-4-yl)phenyl)isonicotinamide] it is 1.25 nM. Consider `Cc1ccc(NC(=O)c2cnnc(C(C)(C)C#N)c2)cc1-c1cc(OC2CCOCC2)nc(N2CCOCC2)c1` [Example 1153, 6-(2-cyanopropan-2-yl)-N-(4-methyl-3-(2-morpholino-6-((tetrahydro-2H-pyran-4-yl)oxy)pyridin-4-yl)phenyl)pyridazine-4-carboxamide], for which the IC50 was 2.15 nM. For the compound `Cc1ccc(NC(=O)c2cnnc(C3CC3)c2)cc1-c1cc(OC2CCOCC2)nc(N2CCOCC2)c1` [Example 1154, 6-cyclopropyl-N-(4-methyl-3-(2-morpholino-6-((tetrahydro-2H-pyran-4-yl)oxy)pyridin-4-yl)phenyl)pyridazine-4-carboxamide], the IC50 came out at 0.6 nM. The figure for `Cc1ccc(NC(=O)c2cnnc(C(F)(F)F)c2)cc1-c1cc(OC2CCOCC2)nc(N2CCOCC2)c1` [Example 1155, N-(4-methyl-3-(2-morpholino-6-((tetrahydro-2H-pyran-4-yl)oxy)pyridin-4-yl)phenyl)-6-(trifluoromethyl)pyridazine-4-carboxamide] is 0.66 nM.

In the case of `Cc1ccc(NC(=O)c2ccnc(C(F)(F)F)c2)cc1-c1cc(OCCO)nc(N2CCOCC2)c1` [Example 1156, N-(3-(2-(2-hydroxyethoxy)-6-morpholinopyridin-4-yl)-4-methylphenyl)-2-(trifluoromethyl)isonicotinamide], the IC50 was determined as 0.73 nM. Regarding `Cc1ccc(NC(=O)c2ccnc(C3CC3)c2)cc1-c1cc(OCCO)nc(N2CCOCC2)c1` [Example 1157, 2-cyclopropyl-N-(3-(2-(2-hydroxyethoxy)-6-morpholinopyridin-4-yl)-4-methylphenyl)isonicotinamide], the IC50 was determined as 0.43 nM. As for `Cc1ccc(NC(=O)c2ccnc(C(C)(C)F)c2)cc1-c1cc(OCCO)nc(N2CCOCC2)c1` [Example 1158, 2-(2-fluoropropan-2-yl)-N-(3-(2-(2-hydroxyethoxy)-6-morpholinopyridin-4-yl)-4-methylphenyl)isonicotinamide], the figure is 1.63 nM. The figure for `Cc1ccc(NC(=O)c2ccnc(C(C)(F)F)c2)cc1-c1cc(OCCO)nc(N2CCOCC2)c1` [Example 1159, 2-(1,1-difluoroethyl)-N-(3-(2-(2-hydroxyethoxy)-6-morpholinopyridin-4-yl)-4-methylphenyl)isonicotinamide] is 0.75 nM. As for `Cc1ccc(NC(=O)c2ccnc(C(F)F)c2)cc1-c1cc(OCCO)nc(N2CCOCC2)c1` [Example 1160, 2-(difluoromethyl)-N-(3-(2-(2-hydroxyethoxy)-6-morpholinopyridin-4-yl)-4-methylphenyl)isonicotinamide], the figure is 0.55 nM. As to `Cc1ccc(NC(=O)c2ccnc(C(C)(C)C#N)c2)cc1-c1cc(OCCO)nc(N2CCOCC2)c1` [Example 1161, 2-(2-cyanopropan-2-yl)-N-(3-(2-(2-hydroxyethoxy)-6-morpholinopyridin-4-yl)-4-methylphenyl)isonicotinamide], the IC50 was 1.5 nM.

Consider `Cc1ccc(NC(=O)c2cnnc(C3CC3)c2)cc1-c1cc(OCCO)nc(N2CCOCC2)c1` [Example 1162, 6-cyclopropyl-N-(3-(2-(2-hydroxyethoxy)-6-morpholinopyridin-4-yl)-4-methylphenyl)pyridazine-4-carboxamide], for which the IC50 came to 0.38 nM. `Cc1ccc(NC(=O)c2cc(C(F)(F)F)ccn2)cc1-c1cc(OCCO)nc(N2CCOCC2)c1` [Example 1163, N-(3-(2-(2-hydroxyethoxy)-6-morpholinopyridin-4-yl)-4-methylphenyl)-4-(trifluoromethyl)picolinamide]: the IC50 turned out to be 1.12 nM. The figure for `Cc1ccc(NC(=O)c2cnnc(C(F)(F)F)c2)cc1-c1cc(OCCO)nc(N2CCOCC2)c1` [Example 1164, N-(3-(2-(2-hydroxyethoxy)-6-morpholinopyridin-4-yl)-4-methylphenyl)-6-(trifluoromethyl)pyridazine-4-carboxamide] is 0.57 nM; for `Cc1ncc(NC(=O)c2ccnc(C(F)(F)F)c2)cc1-c1cc(C2COCCO2)nc(N2CCOCC2)c1` (centres unmarked) [Example 1165, N-(2′-(1,4-dioxan-2-yl)-2-methyl-6′-morpholino-[3,4′-bipyridin]-5-yl)-2-(trifluoromethyl)isonicotinamide] it is 2.82 nM; for `Cc1ncc(NC(=O)c2ccnc(C(C)(F)F)c2)cc1-c1cc(C2COCCO2)nc(N2CCOCC2)c1` (centres unmarked) [Example 1166, N-(2′-(1,4-dioxan-2-yl)-2-methyl-6′-morpholino-[3,4′-bipyridin]-5-yl)-2-(1,1-difluoroethyl)isonicotinamide] it is 3.28 nM.

Consider `Cc1ncc(NC(=O)c2ccnc(C(C)(C)F)c2)cc1-c1cc(C2COCCO2)nc(N2CCOCC2)c1` (centres unmarked) [Example 1167, N-(2′-(1,4-dioxan-2-yl)-2-methyl-6′-morpholino-[3,4′-bipyridin]-5-yl)-2-(2-fluoropropan-2-yl)isonicotinamide], for which the IC50 was 7.62 nM. Take `CCC(F)(F)c1cc(C(=O)Nc2cnc(C)c(-c3cc(C4COCCO4)nc(N4CCOCC4)c3)c2)ccn1` (centres unmarked) [Example 1168, N-(2′-(1,4-dioxan-2-yl)-2-methyl-6′-morpholino-[3,4′-bipyridin]-5-yl)-2-(1,1-difluoropropyl)isonicotinamide]: the IC50 was 4.56 nM. The figure for `Cc1ncc(NC(=O)c2ccnc(C3CC3)c2)cc1-c1cc(C2COCCO2)nc(N2CCOCC2)c1` (centres unmarked) [Example 1169, N-(2′-(1,4-dioxan-2-yl)-2-methyl-6′-morpholino-[3,4′-bipyridin]-5-yl)-2-cyclopropylisonicotinamide] is 3.01 nM; for `CC(F)(F)c1cc(C(=O)Nc2c[nH]c(=O)c(-c3ccnc(N4CCOCC4)c3)c2)ccn1` [Example 1171, 2-(1,1-difluoroethyl)-N-(2′-morpholino-2-oxo-1,2-dihydro-[3,4′-bipyridin]-5-yl)isonicotinamide] it is 25000 nM. As for `O=C(Nc1c[nH]c(=O)c(-c2ccnc(N3CCOCC3)c2)c1)c1cccc(C(F)F)c1` [Example 1174, 3-(difluoromethyl)-N-(2′-morpholino-2-oxo-1,2-dihydro-[3,4′-bipyridin]-5-yl)benzamide], the figure is 25000 nM; as for `Cc1cc(=O)c(C(=O)Nc2cccc(C(F)(F)F)c2)cn1-c1ccnc(N2CCOCC2)c1` [Example 1175, 6-methyl-2′-morpholino-4-oxo-N-(3-(trifluoromethyl)phenyl)-4H-[1,4′-bipyridine]-3-carboxamide], 80 nM.

These data come from US9694016B2 (Novartis AG, priority 2013, dated 2017).
